What was measured:
[1] = test system: rat abdominal aorta (elastic lamina); test: Recovery of elastic fibra in cultured abdominal aorta after nicotine (Example 8); conditions: for Evaluation (rate of destruction): as Table 9; for Rate of destruction (%) of elastic lamina: rat abdominal aorta, nicotine 24 h, then nothing, 24 h nicotine-free medium, or 24 h β-caryophyllene 100 nM
[2] = test system: rat abdominal aorta (elastic lamina); test: Rate of destruction of elastic lamina in cultured abdominal aorta with nicotine, EVG staining (Examples 5 to 7); conditions: as Table 7 rate of destruction
Method: Unnecessary surrounding tissues were removed from the harvested abdominal aorta, which was then dipped in a medium for aorta culture. […] These abdominal aorta specimens were cultured in a medium for aorta culture under conditions of 37° C. and 5% CO2 for 24 hours. […] Specifically, the aortic wall was stained by Elastica van Gieson (EVG) staining and immunohistochemical staining. The quantitative analysis of the histochemical stain was carried out using ImageJ software (National Institutes of Health, Bethesda, Maryland, USA). Since an elastic lamina waveform is EVG-stained, the destruction of the vascular wall was estimated from the ratio of its area. The rate of destruction of the wavy configuration of elastic lamina was calculated by dividing a destroyed region (indicated by flattening and fragmentation of elastic lamina) by the whole region of the elastic lamina.

[3] = test system: elastic lamina of thoracic aorta and abdominal aorta; test: Rate of destruction of elastic lamina in aorta of mice given nicotine water and inhaled β-caryophyllene (Example 9); assay type: in vivo, ddy mice; conditions: for Evaluation (rate of destruction): as Table 10; for Rate of destruction (%) of elastic lamina: mouse aorta, nicotine 0.5 mg/mL in drinking water and/or β-caryophyllene inhalation 1 hour per exposure day
Excerpt: After the test, thoracic aorta and abdominal aorta were obtained by dissection. Each harvested aorta was Elastica van Gieson (EVG)-stained to measure and evaluate the rate of destruction of elastic lamina.

SMILES	Evaluation (rate of destruction) [1]	Rate of destruction (%) of elastic lamina [1]	Evaluation (rate of destruction) [2]	Evaluation (rate of destruction) [3]	Rate of destruction (%) of elastic lamina [3]
CN1CCCC1c1cccnc1 (single isomer, unassigned) [Comparative Example 4, nicotine]	B (a rate of destruction of more than 35% was given B)	54%	–	–	–
CN1CCCC1c1cccnc1 (single isomer, unassigned) [Comparative Example 5, nicotine]	B (a rate of destruction of more than 35% was given B)	58%	–	–	–
CN1CCCC1c1cccnc1 (stereo not drawn) [Comparative Example 2, nicotine, reference compound]	–	–	B (When the rate of destruction of the elastic lamina waveform was 30% or more, the sample was evaluated as having a state in which the vascular wall was destroyed (evaluation B))	–	–
C=C1CC/C=C(\C)CC[C@@H]2[C@@H]1CC2(C)C [Comparative Example 7, β-caryophyllene]	–	–	–	A (When the rate of destruction of the elastic lamina waveform was less than 30%, the sample was evaluated as having a state in which the vascular wall was not destroyed (evaluation A))	11%
CN1CCCC1c1cccnc1 (stereo not drawn) [Comparative Example 8, nicotine, reference compound]	–	–	–	B (When the rate of destruction of the elastic lamina waveform was 30% or more, the sample was evaluated as having a state in which the vascular wall was destroyed (evaluation B))	42%
C=C1CC/C=C(\C)CC[C@@H]2[C@@H]1CC2(C)C [Example 5, β-caryophyllene]	–	–	A (When the rate of destruction of the elastic lamina waveform was less than 30%, the sample was evaluated as having a state in which the vascular wall was not destroyed (evaluation A))	–	15%
C=C1CC/C=C(\C)CC[C@@H]2[C@@H]1CC2(C)C [Example 8, β-caryophyllene]	A (A rate of destruction of 35% or less was given evaluation A)	18%	–	–	–
C=C1CC/C=C(\C)CC[C@@H]2[C@@H]1CC2(C)C [Example 9, β-caryophyllene]	–	–	–	A (When the rate of destruction of the elastic lamina waveform was less than 30%, the sample was evaluated as having a state in which the vascular wall was not destroyed (evaluation A))	15%
